Test in all cases: NCI tumour cell line growth inhibition, 48 h
The subject of test [1] is EKVX NSCLC.
In test [2] the test system is OVCAR-3 ovarian.
For test [3], the system named is TK-10 renal.
In test [4] the test system is SN12C renal.
Test [5] has as its system NCI-H522 lung.
Test [6] concerns HT29 colon.
Test [7] has as its system SK-MEL-28 melanoma.
The subject of test [8] is SNB-75 CNS.
Test [9] deals with HL-60(TB) leukemia.
Test [10] relates to MALME-3M melanoma.
Test [11] has as its system HOP-62 NSCLC.
For test [12], the system named is A498 renal.

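A five-concentration, 48-hour dose response in 96-well plates underlies each endpoint, interpolated linearly between surrounding concentrations. TGI denotes the concentration required for complete inhibition of growth.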

For the compound `O=C1C(NS(=O)(=O)c2ccccc2)=C(n2ccnc2)C(=O)c2ccccc21`, the TGI in test [1], in [2], in test [3], in [4], in test [5] and in test [6] was above 100 µM each time. Also, the TGI in [7], in [8], in test [9], in [10] and in [11] was above 100 µM in each case.
For the compound `CN(C)c1ccc(-c2c(C#N)c(-c3ccccc3)n(NS(=O)(=O)c3ccccc3)c(=O)c2C#N)cc1`, the TGI in [1], in [3], in test [4], in test [5], in [6] and in test [7] was above 100 µM throughout. Also, the TGI in test [8], in test [10], in [12] and in [11] was above 100 µM each time.
Take `O=c1[nH]c2c(C(F)(F)F)c(Cl)c(-c3ccccc3)nc2o1`: the TGI in test [1] was 41.6 µM; in test [2], 65.8 µM; in [3] it was above 100 µM; in test [4] it was 32.4 µM; in test [5], above 100 µM; in test [6] it was 51.6 µM. Further, the TGI in test [7] is above 100 µM; in test [9] it was 13.7 µM; in test [12], above 100 µM; in test [11], above 100 µM.
With `COc1ccc(Nc2nc3ccccc3nc2-c2cccs2)cc1OC`, the TGI in test [1], in test [2], in test [3], in test [4], in test [5] and in test [6] was above 10 µM throughout. The TGI in [7], in [8], in [9] and in test [11] was above 10 µM throughout.
On to `Cc1ccc(N=NC(=Nc2ccc(F)cc2)c2ccc(N(CCC#N)CCC#N)cc2)cc1`, for which the TGI in test [1] was above 100 µM; in test [2], above 100 µM; in [3], above 100 µM; in test [4] it was above 100 µM; in test [5], 63.7 µM; in test [6] it was above 100 µM. In addition, the TGI in [7], in test [8], in test [12] and in test [11] was above 100 µM throughout.
For the compound `COC(=O)/C(=C(/C)c1ccco1)P(=O)(OC)OC`, the TGI in [1], in [2], in test [3], in [4], in [5] and in [6] was above 100 µM each time. Moreover, the TGI in test [7], in test [8], in test [10], in test [12] and in test [11] was above 100 µM in each case.
Turning to `CC1(N2CCOCC2)CC2C(=[N+]1[O-])CCC/C2=N/O` (stereo unspecified), the TGI in test [1], in test [2], in test [3], in test [4], in test [5] and in test [6] was above 100 µM each time. In addition, the TGI in test [7], in test [8], in [10] and in test [11] was above 100 µM in each case.
Turning to `c1ccc(C/C(=N\Nc2nc3ccccc3[nH]2)c2ccccn2)cc1`, the TGI in test [3] was found to be 1.83 µM; in test [4], 10.9 µM; in test [5], 0.105 µM; in [6], 5.23 µM; in test [7] it was 11 µM; in [10] it was 2.23 µM. For the same compound, the results for the TGI in [12] and in [11] were 1.37 µM and 12.6 µM, respectively.
With `COc1cc2c(c3nc4ccccc4nc13)-c1ccc(SC)c(=O)cc1[C@@H](NC(C)=O)CC2`, the TGI in test [1] was 0.795 µM; in test [2], above 100 µM; in test [3] it was above 100 µM; in [4] it was above 100 µM; in test [5] it was 0.151 µM; in test [7], above 100 µM. In addition, the TGI in [8] is above 100 µM; in test [10], 0.0861 µM; in [12], above 65.1 µM; in [11], above 100 µM.
With `CCOC(=O)c1nc2ccccc2nc1Nc1cc(OC)c(OC)c(OC)c1`, the TGI in test [1], in test [2], in test [4], in test [5], in test [6] and in [7] was above 100 µM throughout. The TGI in test [8], in [9], in test [10] and in test [11] was above 100 µM each time.
With `CC(Nc1cccc(Cl)c1)c1ccncc1` (stereo unspecified), the TGI in test [1], in test [2], in [3], in [4], in test [5] and in test [6] was above 100 µM in each case. The TGI in [7], in test [8], in test [10], in test [12] and in [11] was above 100 µM in each case.
As for `CCN(CC)C1=Nc2ccccc2-n2ccnc2C1`, the TGI in [1], in test [2], in test [3], in test [4], in test [5] and in [6] was above 100 µM throughout. For the same compound, the TGI in test [7], in test [8], in [9], in test [12] and in test [11] was above 100 µM in each case.
On to `Cc1cccc(-c2cc(=O)c3cccnc3[nH]2)c1`, for which the TGI was 87.2 µM in [1]; above 100 µM in test [2]; above 100 µM in test [4]; 8.25 µM in [5]; 2.93 µM in test [6]; above 100 µM in test [7]. Moreover, the TGI in test [8] was above 100 µM; in test [9] it was 0.654 µM; in [11] it was above 100 µM.

The values above are taken from PubChem BioAssay (NCI).
